# Experimental data taken from publication PMC7114565 (Virus Research, 2016).
# Where “and” joins values, the source holds several entries; their conditions need not be identical. Equal values may be shown once. Entries after “also recorded” stand apart in the source; their conditions may differ.
# Experiments:
# [1] = test system: MERS-CoV EMC/2012; type: cell-based
# [2] = test system: SARS-CoV; type: cell-based
# [3] = test system: murine hepatitis virus (MHV; strain A59); type: cell-based
# [4] = test system: human coronavirus 229E (HCoV-229E); type: cell-based
# [5] = test system: MERS-CoV EMC/2012
# [6] = test system: HCoV-NL63; conditions: cited from earlier work
# [7] = in vitro; conditions: rhesus monkey
# [8] = in vitro; conditions: mouse
# [9] = test system: MERS-CoV EMC/2012; experiment: microbe, parasite or virus in culture; conditions: Middle East respiratory syndrome-related coronavirus, Huh-7, 48 h
# [10] = test system: LLC-MK2 cells
structure (smiles),measurement,setting,value
"C/C=C/C[C@@H](C)[C@@H](O)[C@H]1C(=O)N[C@@H](CC)C(=O)N(C)[C@H](C)C(=O)N(CC)[C@@H](C(C)C)C(=O)N[C@@H](C(C)C)C(=O)N(C)[C@@H](CC(C)C)C(=O)N[C@@H](C)C(=O)N[C@H](C)C(=O)N(C)[C@@H](CC(C)C)C(=O)N(C)[C@@H](CC(C)C)C(=O)N(C)[C@@H](C(C)C)C(=O)N1C [ALV, alisporivir]",decrease in MERS-CoV progeny titer,[1],comparable decrease in progeny titer
same,reduction of MERS-CoV progeny titer,[1],~2 log
same,effect on SARS-CoV infection,[2],sensitive; also recorded: near-complete block
same,reduction in SARS-CoV virus progeny,[2],~1.5 log
same,decrease of MHV progeny titers,[3],1 log
same,reduction of MHV progeny titers,[3],~2 log
same,reduction of HCoV-229E production,[4],~1.5 log and ~2 log
same,CC50 values times higher than the observed EC50 values,[5],7–13 times
same,EC50,[6],800 nM
same,reduction in HCoV-NL63 virus progeny,[6],4 log
same,CC50,[7],14.3 ± 1.8 µM
same,viability,[8],> 85%
same,EC50,[9],3.4 ± 1 µM
NC(=O)c1ncn([C@@H]2O[C@H](CO)[C@@H](O)[C@H]2O)n1 [ribavirin],effect on cell viability,[10],gradually lowered the cell viability
